{
  "source": "BindingDB's records for patent US11299480",
  "about": "(University of Hawaii, 2022)",
  "target": "Signal transducer and activator of transcription 3 (Homo sapiens, UniProt P40763)",
  "sequence (P40763 whole entry)": "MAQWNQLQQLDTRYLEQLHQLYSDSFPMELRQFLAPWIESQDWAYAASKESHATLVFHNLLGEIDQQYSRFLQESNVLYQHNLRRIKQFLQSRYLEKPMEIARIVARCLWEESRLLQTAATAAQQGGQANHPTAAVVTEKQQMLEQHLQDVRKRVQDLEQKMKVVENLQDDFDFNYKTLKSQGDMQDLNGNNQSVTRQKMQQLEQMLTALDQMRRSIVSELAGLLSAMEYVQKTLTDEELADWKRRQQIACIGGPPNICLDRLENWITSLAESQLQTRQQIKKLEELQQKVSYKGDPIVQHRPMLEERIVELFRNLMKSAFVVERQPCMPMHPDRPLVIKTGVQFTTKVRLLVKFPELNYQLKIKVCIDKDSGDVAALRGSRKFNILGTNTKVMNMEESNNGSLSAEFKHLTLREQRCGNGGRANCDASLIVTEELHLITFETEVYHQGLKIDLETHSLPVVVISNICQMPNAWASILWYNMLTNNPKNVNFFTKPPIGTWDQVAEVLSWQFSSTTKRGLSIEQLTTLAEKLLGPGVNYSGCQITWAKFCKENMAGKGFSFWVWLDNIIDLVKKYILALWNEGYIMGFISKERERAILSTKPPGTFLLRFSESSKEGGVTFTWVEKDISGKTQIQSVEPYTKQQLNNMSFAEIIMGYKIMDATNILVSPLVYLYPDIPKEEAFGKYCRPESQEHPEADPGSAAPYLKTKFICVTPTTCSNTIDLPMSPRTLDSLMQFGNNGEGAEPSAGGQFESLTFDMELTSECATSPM",
  "assay": "In Vitro Assay",
  "description": "Except where indicated, nuclear extracts were pre-incubated with compound for 30 min at room temperature prior to incubation with the radiolabeled probe for 30 min at 30° C. before subjecting to EMSA analysis. Where appropriate, bands corresponding to Stat3:DNA complexes were scanned and quantified for each concentration of compound using ImageJ and plotted as percent of control (DMSO) against concentration of compound, from which the IC50 values were derived.",
  "data": [
    {"smiles": "O=C(O)c1ccc(N(Cc2cnc(C3CCCCC3)cn2)C(=O)[C@H]2CCN2S(=O)(=O)c2c(F)c(F)c(F)c(Cl)c2F)cc1O", "note": "[US11299480, Example 152]", "values": [
      {"measurement": "IC50", "value": 422, "unit": "nM"}
    ]}
  ]
}
